Experiment [1] addresses T1, Alpha-2A adrenergic receptor (Homo sapiens, UniProt P08913).
T1 sequence (P08913 whole entry): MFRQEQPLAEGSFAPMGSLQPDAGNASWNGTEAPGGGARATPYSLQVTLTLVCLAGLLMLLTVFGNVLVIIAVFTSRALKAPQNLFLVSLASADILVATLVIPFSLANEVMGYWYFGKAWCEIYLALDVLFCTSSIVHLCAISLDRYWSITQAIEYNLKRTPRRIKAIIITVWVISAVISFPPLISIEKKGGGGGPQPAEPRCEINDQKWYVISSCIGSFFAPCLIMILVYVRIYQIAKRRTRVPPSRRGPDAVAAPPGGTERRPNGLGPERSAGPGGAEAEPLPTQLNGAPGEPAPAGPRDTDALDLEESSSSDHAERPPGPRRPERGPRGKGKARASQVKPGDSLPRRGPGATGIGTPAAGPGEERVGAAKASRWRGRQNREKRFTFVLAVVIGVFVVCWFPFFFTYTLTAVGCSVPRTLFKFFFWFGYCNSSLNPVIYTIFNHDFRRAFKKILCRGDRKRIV

The target of experiment [2] is 5-hydroxytryptamine receptor 2B (Homo sapiens, UniProt P41595). It counts as functional, cell-based.
5-hydroxytryptamine receptor 2B, sequence (P41595 whole entry): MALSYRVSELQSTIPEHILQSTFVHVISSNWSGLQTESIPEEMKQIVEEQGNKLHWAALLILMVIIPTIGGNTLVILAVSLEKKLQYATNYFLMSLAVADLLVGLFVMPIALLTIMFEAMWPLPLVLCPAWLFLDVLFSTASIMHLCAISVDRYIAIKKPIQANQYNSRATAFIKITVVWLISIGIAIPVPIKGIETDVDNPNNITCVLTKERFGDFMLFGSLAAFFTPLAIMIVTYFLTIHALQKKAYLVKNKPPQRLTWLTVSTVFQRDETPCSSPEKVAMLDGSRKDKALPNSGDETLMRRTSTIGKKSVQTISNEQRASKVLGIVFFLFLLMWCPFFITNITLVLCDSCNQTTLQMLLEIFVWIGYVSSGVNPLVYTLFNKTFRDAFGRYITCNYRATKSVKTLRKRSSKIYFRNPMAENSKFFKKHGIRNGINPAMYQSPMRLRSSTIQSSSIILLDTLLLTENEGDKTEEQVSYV
Experiment [3] concerns the target Voltage-gated inwardly rectifying potassium channel KCNH2 (Homo sapiens, UniProt Q12809). It counts as functional.
The target of experiment [4] is Vascular endothelial growth factor receptor 2 (Homo sapiens, UniProt P35968). It counts as functional.
Vascular endothelial growth factor receptor 2, sequence (P35968 whole entry): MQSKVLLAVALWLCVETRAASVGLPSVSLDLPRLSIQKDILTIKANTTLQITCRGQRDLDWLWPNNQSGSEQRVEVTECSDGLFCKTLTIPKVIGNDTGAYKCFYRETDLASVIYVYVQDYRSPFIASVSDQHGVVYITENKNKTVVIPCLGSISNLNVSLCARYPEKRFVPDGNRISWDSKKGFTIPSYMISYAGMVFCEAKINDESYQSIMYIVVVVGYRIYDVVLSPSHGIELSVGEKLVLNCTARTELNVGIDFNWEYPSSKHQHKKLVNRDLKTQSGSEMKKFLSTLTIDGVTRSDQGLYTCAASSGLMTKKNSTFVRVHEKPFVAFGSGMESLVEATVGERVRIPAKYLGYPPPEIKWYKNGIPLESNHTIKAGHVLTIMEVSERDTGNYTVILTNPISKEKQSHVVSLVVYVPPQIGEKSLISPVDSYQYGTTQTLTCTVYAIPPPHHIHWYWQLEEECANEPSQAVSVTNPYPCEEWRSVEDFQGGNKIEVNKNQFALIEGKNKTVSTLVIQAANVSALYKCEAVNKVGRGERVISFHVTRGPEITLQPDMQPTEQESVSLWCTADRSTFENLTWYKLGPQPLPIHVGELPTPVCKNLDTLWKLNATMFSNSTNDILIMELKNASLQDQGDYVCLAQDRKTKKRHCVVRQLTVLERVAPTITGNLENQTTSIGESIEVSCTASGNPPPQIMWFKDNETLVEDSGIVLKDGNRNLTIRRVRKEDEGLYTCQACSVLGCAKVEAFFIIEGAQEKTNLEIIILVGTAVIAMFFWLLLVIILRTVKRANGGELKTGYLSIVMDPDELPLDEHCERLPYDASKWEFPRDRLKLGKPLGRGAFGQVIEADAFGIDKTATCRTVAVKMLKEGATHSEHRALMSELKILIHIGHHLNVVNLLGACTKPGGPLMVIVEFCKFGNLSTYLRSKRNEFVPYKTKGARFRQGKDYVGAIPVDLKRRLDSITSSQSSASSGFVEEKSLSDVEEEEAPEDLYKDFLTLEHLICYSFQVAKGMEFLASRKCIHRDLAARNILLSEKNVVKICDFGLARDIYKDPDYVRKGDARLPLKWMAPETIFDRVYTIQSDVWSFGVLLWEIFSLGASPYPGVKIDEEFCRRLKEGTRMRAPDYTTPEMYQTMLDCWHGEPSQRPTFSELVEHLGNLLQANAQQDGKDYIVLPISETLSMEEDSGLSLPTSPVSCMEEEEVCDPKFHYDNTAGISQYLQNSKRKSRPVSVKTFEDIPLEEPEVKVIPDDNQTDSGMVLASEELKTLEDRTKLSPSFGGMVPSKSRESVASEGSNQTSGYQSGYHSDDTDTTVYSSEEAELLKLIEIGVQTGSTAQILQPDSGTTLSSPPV
Experiment [5] has as its target Mu-type opioid receptor (Homo sapiens, UniProt P35372).
The target in experiment [6] is T2, Progesterone receptor (Homo sapiens, UniProt P06401).
T2 sequence (P06401 whole entry): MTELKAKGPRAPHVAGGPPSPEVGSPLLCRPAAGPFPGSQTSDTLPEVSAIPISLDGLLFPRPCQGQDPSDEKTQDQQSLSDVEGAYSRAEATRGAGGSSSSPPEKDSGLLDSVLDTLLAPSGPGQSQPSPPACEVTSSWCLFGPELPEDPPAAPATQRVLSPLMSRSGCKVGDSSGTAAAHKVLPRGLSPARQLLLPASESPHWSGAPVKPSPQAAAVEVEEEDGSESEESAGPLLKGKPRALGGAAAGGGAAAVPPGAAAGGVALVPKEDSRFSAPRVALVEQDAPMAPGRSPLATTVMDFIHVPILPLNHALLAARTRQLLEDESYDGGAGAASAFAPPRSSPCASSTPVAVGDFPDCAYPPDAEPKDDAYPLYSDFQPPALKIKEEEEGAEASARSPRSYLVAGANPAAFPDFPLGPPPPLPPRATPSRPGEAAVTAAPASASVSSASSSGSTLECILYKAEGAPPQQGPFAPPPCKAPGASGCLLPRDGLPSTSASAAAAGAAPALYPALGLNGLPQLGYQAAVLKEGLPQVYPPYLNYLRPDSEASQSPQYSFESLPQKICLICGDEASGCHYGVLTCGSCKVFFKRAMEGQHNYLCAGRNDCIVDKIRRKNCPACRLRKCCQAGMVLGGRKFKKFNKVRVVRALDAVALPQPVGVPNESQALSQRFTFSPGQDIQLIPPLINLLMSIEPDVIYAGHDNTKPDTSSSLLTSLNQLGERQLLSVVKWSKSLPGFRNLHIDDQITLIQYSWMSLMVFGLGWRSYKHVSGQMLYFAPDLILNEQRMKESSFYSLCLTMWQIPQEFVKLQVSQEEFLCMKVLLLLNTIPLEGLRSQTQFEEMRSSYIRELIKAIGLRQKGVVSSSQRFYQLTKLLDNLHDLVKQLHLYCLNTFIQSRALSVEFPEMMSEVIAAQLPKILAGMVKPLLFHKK

Experiment [7] deals with Sodium-dependent serotonin transporter (Homo sapiens, UniProt P31645).
Sodium-dependent serotonin transporter, sequence (P31645 whole entry): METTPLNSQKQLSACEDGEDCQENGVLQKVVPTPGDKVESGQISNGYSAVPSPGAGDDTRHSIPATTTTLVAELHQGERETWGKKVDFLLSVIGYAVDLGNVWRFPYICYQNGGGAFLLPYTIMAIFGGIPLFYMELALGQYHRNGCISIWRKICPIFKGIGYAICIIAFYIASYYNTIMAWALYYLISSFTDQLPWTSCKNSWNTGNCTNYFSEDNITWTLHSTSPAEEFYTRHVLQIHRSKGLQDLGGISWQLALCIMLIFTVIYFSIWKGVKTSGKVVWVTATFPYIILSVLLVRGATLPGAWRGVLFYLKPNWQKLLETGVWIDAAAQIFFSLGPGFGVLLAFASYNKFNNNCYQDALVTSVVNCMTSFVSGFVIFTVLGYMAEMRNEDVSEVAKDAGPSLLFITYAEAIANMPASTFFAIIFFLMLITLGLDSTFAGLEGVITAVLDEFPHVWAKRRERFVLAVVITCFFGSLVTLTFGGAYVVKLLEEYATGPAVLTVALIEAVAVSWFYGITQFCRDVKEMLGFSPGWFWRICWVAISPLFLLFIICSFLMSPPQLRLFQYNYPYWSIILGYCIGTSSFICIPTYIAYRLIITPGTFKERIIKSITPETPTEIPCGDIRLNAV
In experiment [8] the target is T3, Thromboxane A2 receptor (Homo sapiens, UniProt P21731).
T3 sequence (P21731 whole entry): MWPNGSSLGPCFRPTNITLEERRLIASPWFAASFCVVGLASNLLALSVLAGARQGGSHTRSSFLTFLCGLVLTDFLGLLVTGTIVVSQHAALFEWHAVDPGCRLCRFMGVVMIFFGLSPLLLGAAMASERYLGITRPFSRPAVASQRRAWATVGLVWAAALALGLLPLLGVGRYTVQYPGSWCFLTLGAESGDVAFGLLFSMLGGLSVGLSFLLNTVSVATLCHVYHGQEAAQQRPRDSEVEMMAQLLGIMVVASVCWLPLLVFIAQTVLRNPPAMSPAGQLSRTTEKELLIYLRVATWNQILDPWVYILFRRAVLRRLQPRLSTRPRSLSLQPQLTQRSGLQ
It counts as functional, cell-based.

For 6 compounds, AC50 results are on record in ChEMBL document CHEMBL5291721, “A preclinical secondary pharmacology resource illuminates target-adverse drug reaction associations of marketed drugs” (Nat Commun, 2023).

A value given as a limit tells only on which side of the number the result lay.
Also: assay procedure not described here.

Mu-type opioid receptor, sequence (P35372 whole entry): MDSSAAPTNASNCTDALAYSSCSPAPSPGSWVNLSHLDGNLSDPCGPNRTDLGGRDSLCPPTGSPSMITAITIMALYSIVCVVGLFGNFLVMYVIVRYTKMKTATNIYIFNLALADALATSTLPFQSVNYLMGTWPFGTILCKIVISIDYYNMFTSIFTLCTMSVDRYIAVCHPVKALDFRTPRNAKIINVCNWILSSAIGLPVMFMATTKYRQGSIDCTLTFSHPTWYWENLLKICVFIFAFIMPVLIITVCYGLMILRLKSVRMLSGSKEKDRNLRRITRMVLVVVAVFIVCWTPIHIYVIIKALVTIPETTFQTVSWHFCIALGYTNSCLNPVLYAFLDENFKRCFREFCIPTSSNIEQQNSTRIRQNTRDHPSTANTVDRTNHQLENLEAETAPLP
Voltage-gated inwardly rectifying potassium channel KCNH2, sequence (Q12809 whole entry): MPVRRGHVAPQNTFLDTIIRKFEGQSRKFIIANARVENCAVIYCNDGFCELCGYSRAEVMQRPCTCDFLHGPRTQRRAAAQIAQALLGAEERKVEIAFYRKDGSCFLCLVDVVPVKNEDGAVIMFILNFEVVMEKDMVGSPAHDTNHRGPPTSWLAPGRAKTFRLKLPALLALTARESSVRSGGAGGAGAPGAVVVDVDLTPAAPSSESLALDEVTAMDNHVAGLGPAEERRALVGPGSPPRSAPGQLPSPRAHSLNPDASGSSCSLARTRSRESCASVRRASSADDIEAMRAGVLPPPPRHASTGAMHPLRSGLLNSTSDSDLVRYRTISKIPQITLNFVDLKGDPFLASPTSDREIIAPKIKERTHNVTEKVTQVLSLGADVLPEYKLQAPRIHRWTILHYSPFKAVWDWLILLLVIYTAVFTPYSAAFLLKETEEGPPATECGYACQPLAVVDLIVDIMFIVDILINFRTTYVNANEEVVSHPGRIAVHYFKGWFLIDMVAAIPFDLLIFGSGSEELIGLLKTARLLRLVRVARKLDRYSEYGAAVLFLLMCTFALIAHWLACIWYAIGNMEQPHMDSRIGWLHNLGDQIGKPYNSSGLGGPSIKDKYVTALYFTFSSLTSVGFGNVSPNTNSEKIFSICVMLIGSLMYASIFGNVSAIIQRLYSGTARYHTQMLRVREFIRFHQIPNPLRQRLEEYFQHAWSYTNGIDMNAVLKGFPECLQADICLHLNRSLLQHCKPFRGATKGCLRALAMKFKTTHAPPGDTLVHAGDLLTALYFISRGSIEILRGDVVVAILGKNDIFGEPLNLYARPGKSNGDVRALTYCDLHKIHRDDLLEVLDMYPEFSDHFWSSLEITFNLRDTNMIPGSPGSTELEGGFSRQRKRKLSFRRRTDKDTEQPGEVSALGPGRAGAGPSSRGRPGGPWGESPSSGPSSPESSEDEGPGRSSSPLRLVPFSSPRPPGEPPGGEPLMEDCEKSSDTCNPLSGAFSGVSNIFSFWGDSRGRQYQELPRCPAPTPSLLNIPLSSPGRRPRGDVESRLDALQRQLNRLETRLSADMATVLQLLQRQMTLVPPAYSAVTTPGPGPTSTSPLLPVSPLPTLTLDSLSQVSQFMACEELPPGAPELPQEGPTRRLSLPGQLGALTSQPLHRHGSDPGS

For `O=C(O)CN(CCN(CC(=O)O)CC(=O)O)CCN(CC(=O)O)CC(=O)O` [PENTETIC ACID], the AC50 is 1.32 µM in experiment [1]; > 30 µM in experiment [2]; > 30 µM in experiment [3]; > 30 µM in experiment [4]; > 30 µM in experiment [5]; > 30 µM in experiment [6]. Further, the half-maximal activity concentration (AC50) in experiment [7] is 0.0429 µM; in experiment [8] it was > 30 µM.

With `Nc1cccc2c1C(=O)N(C1CCC(=O)NC1=O)C2=O` (stereo not drawn) [POMALIDOMIDE], the AC50 in experiment [1], in experiment [2], in experiment [3], in experiment [4], in experiment [5] and in experiment [6] was > 30 µM throughout. Besides, the AC50 was > 30 µM in experiment [7] and 26.7 µM in experiment [8].

With `C[Se]CC[C@H](N)C(=O)O` [SELENOMETHIONINE], the half-maximal activity concentration (AC50) in experiment [1], in experiment [2], in experiment [3], in experiment [4], in experiment [5] and in experiment [6] was > 30 µM throughout. Further, the AC50 in experiment [7] and in experiment [8] was > 30 µM each time.

Consider `Cc1ccsc1C(=CCCN1CCC[C@@H](C(=O)O)C1)c1sccc1C` [TIAGABINE], for which the AC50 in experiment [1], in experiment [2], in experiment [3], in experiment [4], in experiment [5] and in experiment [6] was > 30 µM throughout. In addition, the AC50 in experiment [7] and in experiment [8] was > 30 µM in each case.

`Cc1ccccc1C(=O)Nc1ccc(C(=O)N2CCCC(O)c3cc(Cl)ccc32)c(C)c1` (stereo not drawn) [TOLVAPTAN]: the AC50 is > 30 µM in experiment [1]; > 30 µM in experiment [2]; > 30 µM in experiment [3]; > 30 µM in experiment [4]; 6.71 µM in experiment [5]; > 30 µM in experiment [6]. For the same compound, the AC50 in experiment [7] and in experiment [8] was > 30 µM in each case.

Turning to `CC[C@]12CCCN3CCc4c(n(c5ccccc45)[C@@](O)(C(=O)OC)C1)[C@@H]32` [VINCAMINE], the AC50 is > 30 µM in experiment [1]; > 30 µM in experiment [2]; 0.46 µM in experiment [3]; > 30 µM in experiment [4]; > 30 µM in experiment [5]; > 30 µM in experiment [6]. The AC50 in experiment [7] and in experiment [8] was > 30 µM throughout.

The AC50 is the midpoint of the concentration-response curve, whichever way the signal moves.
